Reference: patent publication US8541410B2, “Sulfur substituted sulfonylaminocarboxylic acid N-arylamides, their preparation, their use and pharmaceutical preparations comprising them” (Sanofi-aventis Deutschland GmbH, priority 1998, dated 2013)

Molecular target: T1, soluble guanylate cyclase (sGC) (Bos taurus, UniProt P16068)
T1 construct: The sGC which was employed had been isolated from bovine lung; from tissue; host or cells: bovine lung
T1 sequence (P16068 1-619): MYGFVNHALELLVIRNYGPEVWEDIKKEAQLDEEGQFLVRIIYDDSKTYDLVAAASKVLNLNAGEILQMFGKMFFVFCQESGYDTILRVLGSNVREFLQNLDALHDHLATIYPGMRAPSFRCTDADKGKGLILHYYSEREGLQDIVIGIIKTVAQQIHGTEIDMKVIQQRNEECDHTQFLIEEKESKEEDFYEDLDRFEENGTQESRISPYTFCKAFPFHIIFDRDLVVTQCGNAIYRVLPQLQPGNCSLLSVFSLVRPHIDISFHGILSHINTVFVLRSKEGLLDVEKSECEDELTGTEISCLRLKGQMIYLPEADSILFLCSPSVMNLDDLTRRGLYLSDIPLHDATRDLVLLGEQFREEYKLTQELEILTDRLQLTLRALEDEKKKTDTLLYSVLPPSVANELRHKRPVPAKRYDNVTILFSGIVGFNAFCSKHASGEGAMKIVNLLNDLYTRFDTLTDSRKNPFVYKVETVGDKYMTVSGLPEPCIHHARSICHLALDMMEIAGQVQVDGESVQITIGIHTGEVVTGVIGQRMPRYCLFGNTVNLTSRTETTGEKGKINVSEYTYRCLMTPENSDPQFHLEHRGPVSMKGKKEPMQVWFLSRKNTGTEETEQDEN
T1 sequence (P19687 1-691 partner): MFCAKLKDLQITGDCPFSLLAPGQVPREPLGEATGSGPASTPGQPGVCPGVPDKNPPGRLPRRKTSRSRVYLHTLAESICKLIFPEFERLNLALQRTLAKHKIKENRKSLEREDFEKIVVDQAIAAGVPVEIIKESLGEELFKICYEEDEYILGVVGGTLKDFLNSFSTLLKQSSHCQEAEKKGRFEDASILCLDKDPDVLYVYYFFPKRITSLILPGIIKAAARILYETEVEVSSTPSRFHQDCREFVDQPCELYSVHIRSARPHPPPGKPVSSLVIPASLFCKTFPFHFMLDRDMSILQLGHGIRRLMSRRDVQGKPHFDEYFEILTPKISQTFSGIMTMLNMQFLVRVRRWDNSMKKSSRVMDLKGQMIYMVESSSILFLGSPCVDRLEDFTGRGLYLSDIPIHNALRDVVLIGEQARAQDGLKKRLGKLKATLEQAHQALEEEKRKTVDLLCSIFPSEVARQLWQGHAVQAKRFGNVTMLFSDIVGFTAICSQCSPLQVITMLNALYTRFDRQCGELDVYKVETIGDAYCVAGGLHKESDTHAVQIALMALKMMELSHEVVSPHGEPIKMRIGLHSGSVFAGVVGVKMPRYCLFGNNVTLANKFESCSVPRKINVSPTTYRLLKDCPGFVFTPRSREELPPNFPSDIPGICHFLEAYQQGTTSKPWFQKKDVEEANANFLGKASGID
Assay: Activation of the soluble guanylate cyclase (cGMP enzyme immunoassay)
Assay type: biochemical, bovine
Conditions: n-fold stimulation of basal enzyme activity
Protocol: The activation of the soluble guanylate cyclase (sGC) which catalyzes the conversion of guanosine triphosphate (GTP) into cyclic guanosine monophosphate (cGMP) and pyrophosphate, by the compounds according to the invention was quantified with the aid of an enzyme immunoassay (EIA) from Amersham. For this purpose the substances to be tested were initially incubated with sGC in microtiter plates, and the amount of the cGMP formed was then determined.
The sGC which was employed had been isolated from bovine lung (see Methods in Enzymology, Volume 195, p. 377). The test solutions (100 μl per well) contained 50 mM triethanolamine (TEA) buffer (pH 7.5), 3 mM MgCl2, 3 mM reduced glutathione (GSH), 0.1 mM GTP, 1 mM 3-isobutyl-1-methylxanthine (IBMX), suitably diluted enzyme solution and the substance to be tested or, in the control experiments, the solvent. The substances to be tested were dissolved in dimethyl sulfoxide (DMSO) and the solution was diluted with DMSO/water, so that the final concentration (c) of the substance to be tested in the test solution had the value indicated in the table. The DMSO concentration in the test solution was 5% (v/v). The reaction was initiated by addition of the sGC. The reaction mixture was incubated at 37° C. for 15 to 20 minutes and then stopped by ice-cooling and addition of the stop reagent (50 mM EDTA, pH 8.0). An aliquot of 50 μl was taken and used for determining the cGMP content using the acetylation protocol of the Amersham cGMP-EIA kit. The absorption of the samples was measured at 450 nm (reference wavelength 620 nm) in a microtiter plate reader. The cGMP concentration was determined using a standard curve which was obtained under the same test conditions. The activation of sGC by a test substance is given as the n-fold stimulation of the basal enzyme activity which was found in the control experiments (using solvent instead of test substance) (calculated using the formula n-fold stimulation=[cGMP]test substance/[cGMP]control).

O=C(Nc1ccc(S(=O)(=O)N2CCC3(CC2)OCCO3)cc1)c1cc(Cl)ccc1NS(=O)(=O)c1ccc(Cl)cc1 [Example 68, 5-Chloro-2-(4-chloro-phenylsulfonylamino)-N-(4-(1,4-dioxa-8-aza-spiro[4.5]decane-8-sulfonyl)-phenyl)-benzamide]
n-fold stimulation (concentration c 50 μM): 12.1

C[C@@H]1CN(S(=O)(=O)c2ccc(NC(=O)c3ccc(Cl)cc3NS(=O)(=O)c3ccc(Cl)cc3)cc2)C[C@H](C)O1 [Example 226, 4-Chloro-2-(4-chloro-phenylsulfonylamino)-N-(4-(cis-2,6-dimethyl-morpholine-4-sulfonyl)-phenyl)-benzamide]
n-fold stimulation (concentration c 25 μM): 3.3

O=C(Nc1ccc(S(=O)(=O)N2CCOCC2)cc1)c1sccc1NS(=O)(=O)c1ccc(Cl)cc1 [Example 79, 3-(4-Chloro-phenylsulfonylamino)-N-(4-(morpholine-4-sulfonyl)-phenyl)-thiophene-2-carboxamide]
n-fold stimulation (concentration c 50 μM): 15.4

O=C(Nc1ccc(S(=O)(=O)N2CCOCC2)cc1)c1cc(Cl)ccc1NS(=O)(=O)c1cccnc1 [Example 132, 5-Chloro-N-(4-(morpholine-4-sulfonyl)-phenyl)-2-(pyridine-3-sulfonylamino)-benzamide]
n-fold stimulation (concentration c 50 μM): 9.9

O=C(Nc1ccc(S(=O)(=O)N2CCOCC2)cc1)c1cc(Cl)ccc1NS(=O)(=O)CC(F)(F)F [Example 155, 5-Chloro-N-(4-(morpholine-4-sulfonyl)-phenyl)-2-(2,2,2-trifluoro-ethylsulfonylamino)-benzamide]
n-fold stimulation (concentration c 50 μM): 7.8

O=C(Nc1ccc(S(=O)(=O)N2CCCCC2)cc1)c1cc(Cl)ccc1NS(=O)(=O)c1ccc(Cl)cc1 [Example 76, 5-Chloro-2-(4-chloro-phenylsulfonylamino)-N-(4-(piperidine-1-sulfonyl)-phenyl)-benzamide]
n-fold stimulation (concentration c 50 μM): 10.6

O=C(Nc1ccc(S(=O)(=O)N2CCOCC2)cc1)c1cc(Cl)ccc1NS(=O)(=O)c1cccc([N+](=O)[O-])c1 [Example 151, 5-Chloro-N-(4-(morpholine-4-sulfonyl)-phenyl)-2-(3-nitro-phenylsulfonylamino)-benzamide]
n-fold stimulation (concentration c 50 μM): 19.9

CSc1ccc(NC(=O)c2cc(Cl)ccc2NS(=O)(=O)c2ccc(Cl)cc2)cc1 [Example 23, 5-Chloro-2-(4-chloro-phenylsulfonylamino)-N-(4-methylmercapto-phenyl)-benzamide]
n-fold stimulation (concentration c 50 μM): 14.7

O=C(Nc1ccc(S(=O)(=O)N2CCOCC2)cc1)c1cc(Cl)ccc1NS(=O)(=O)c1ccc(Cl)c(Cl)c1 [Example 69, 5-Chloro-2-(3,4-dichloro-phenylsulfonylamino)-N-(4-(morpholine-4-sulfonyl)-phenyl)-benzamide]
n-fold stimulation (concentration c 50 μM): 28.3

COc1cc(NS(=O)(=O)c2ccc(Cl)cc2)c(C(=O)Nc2ccc(S(=O)(=O)N3CCC(O)CC3)cc2)cc1OC [Example 89, 2-(4-Chloro-phenylsulfonylamino)-N-(4-(4-hydroxy-piperidine-1-sulfonyl)-phenyl)-4,5-dimethoxy-benzamide]
n-fold stimulation (concentration c 50 μM): 11.6

O=C(Nc1ccc(S(=O)(=O)N2CCOCC2)cc1)c1cc(Cl)ccc1NS(=O)(=O)c1cccs1 [Example 136, 5-Chloro-N-(4-(morpholine-4-sulfonyl)-phenyl)-2-(thiophene-2-sulfonylamino)-benzamide]
n-fold stimulation (concentration c 50 μM): 24.2

CCN(CC)S(=O)(=O)c1ccc(NC(=O)c2cc(Cl)ccc2NS(=O)(=O)c2ccc(Cl)cc2)cc1 [Example 75, 5-Chloro-2-(4-chloro-phenylsulfonylamino)-N-(4-diethylsulfamoyl-phenyl)-benzamide]
n-fold stimulation (concentration c 50 μM): 5.1

CCCCS(=O)(=O)Nc1ccc(Cl)cc1C(=O)Nc1ccc(S(=O)(=O)N2CCOCC2)cc1 [Example 156, 2-(Butyl-sulfonylamino)-5-chloro-N-(4-(morpholine-4-sulfonyl)-phenyl)-benzamide]
n-fold stimulation (concentration c 50 μM): 7.8
